From patent US20150147417A1, “METHOD AND PHARMACEUTICAL COMPOSITION FOR LIVER FIBROSIS PREVENTION AND/OR TREATMENT” (National Dong Hua University, priority 2013, published 2015)

What was measured:
Format in all cases: cell-based, male Sprague-Dawley rat
MMP2 [1] = test: MMP2 level (gelatin zymography) in THSC; settings: curcumin 25 μM, except 24 h treatment
Procedure: (§1) Protein expression level was determined by western blotting and normalized with β-actin. Data are normalized to normal control (N) and expressed as mean±SEM in triplicate determinations. a, vs. N; b, vs. Cur. *, p<0.05; **, p<0.01; ***, p<0.001. Non-induced hepatic stellate cells (NHSC, purity >95%) were isolated from male Sprague-Dawley rat liver, and Thioacetamide (TAA; Fluka Chemie GmbH, Buchs, Switzerland)-induced hepatic stellate cells (THSC, purity >95%) were isolated from TAA-induced fibrotic liver of male Sprague-Dawley rat (Chang et al., 2009). Both cells were maintained in complete DMEM containing 10% heat-inactivated FBS and 1% penicillin/streptomycin. The activity of MMP2 was assayed by gelatine zymography, which can detect the active form and latent form of MMP2. NHSC and THSC (2×10^5 cells) were seeded in 6 well plates and incubated for 70 to 80% confluence. Cells were starved in DMEM containing 0.1% BSA for 6 h, and then treated with various concentrations of BL extract (100, 250, and 500 μg/ml) or curcumin (25 μM) for 12 and 24 h. Media were collected and centrifuged at 12,000×g for 30 min at 4° C. The supernatants were collected and protein concentration was quantified by Bradford dye (Bio-Rad). 8% SDS-PAGE gels were prepared containing 10% gelatin. […] Gels were scanned using Epson scanner and quantified using multi-gauge software (Fujifilm).

MMP2 [2] = test: MMP2 level (gelatin zymography) in NHSC; settings: curcumin 25 μM
Procedure: as §1

NHSC = test: Western blotting of protein expression levels; settings: curcumin 25 μM
Procedure: (§2) Non-induced hepatic stellate cells (NHSC, purity >95%) were isolated from male Sprague-Dawley rat liver, and Thioacetamide (TAA; Fluka Chemie GmbH, Buchs, Switzerland)-induced hepatic stellate cells (THSC, purity >95%) were isolated from TAA-induced fibrotic liver of male Sprague-Dawley rat (Chang et al., 2009). Both cells were maintained in complete DMEM containing 10% heat-inactivated FBS and 1% penicillin/streptomycin. NHSC and THSC (5×10^5 cells) were seeded in 6 cm dish and grown till 80% confluence, and then incubated with various concentrations of BL extract (100, 250, and 500 μg/ml) or curcumin (25 μM) for 12 and 24 h. Cells were collected and lysed with RIPA buffer (150 mM NaCl, 0.1% Triton X-100, 0.5% sodium deoxycholate, 0.1% SDS, 50 mM Tris-HCl, pH 8.0). Protease inhibitor (Roche Applied Science, Mannheim, Germany) containing pancreas extract, thermolysin, chymotrypsin, trypsin, and papain was mixed with 50 ml RIPA buffer before use. Protein samples (30 μg/well) were loaded and separated with SDS-PAGE, and then transferred to PVDF membrane (PerkinElmer, Turku, Finland). The membrane was blocked with 5% non-fat milk in TBST (20 mM Tris-HCl, pH 7.4, 137 mM NaCl, and 0.05% Tween-20) at room temperature for 1 h. The membranes were incubated with primary antibodies (Table 1) at 4° C. overnight. The membranes were washed 3 times with TBST and then incubated with horseradish peroxidase (HRP)-conjugated secondary antibodies at room temperature for 1 h. Following incubation with HRP-conjugated secondary antibodies, membranes were treated with ECL reagents (PerkinElmer) for 1 min, and results were developed on LAS-3000 film (Fujifilm, Tokyo, Japan).

THSC = test: Western blotting of protein expression levels; settings: curcumin 25 μM
Procedure: as §2

[3] = tested on: NHSC (non-induced hepatic stellate cells); test: Oil red O staining of lipid droplets; settings: curcumin 25 μM, 12 and 24 h, compared to BL extract treated cells
Procedure: (§3) Non-induced hepatic stellate cells (NHSC, purity >95%) were isolated from male Sprague-Dawley rat liver, and Thioacetamide (TAA; Fluka Chemie GmbH, Buchs, Switzerland)-induced hepatic stellate cells (THSC, purity >95%) were isolated from TAA-induced fibrotic liver of male Sprague-Dawley rat (Chang et al., 2009). Both cells were maintained in complete DMEM containing 10% heat-inactivated FBS and 1% penicillin/streptomycin. NHSC and THSC cells (1×10^5 cells) were seeded in 6 well plates and incubated at 37° C. overnight. Then, cells were treated with various concentrations of BL extract (100, 250, and 500 μg/ml) or curcumin (25 μM) for 12 and 24 h. Cells were washed twice with PBS and fixed with pre-warmed 3.7% paraformaldehyde for 10 min. Cells were then stained with diluted Oil red O stock solution 0.5% (w/v) in isopropanol (Fluka; buffer/water=3/2) at room temperature for 1 h under the dark. Cells were washed with 50% isopropanol and counter-stained with Hematoxylin (Sigma-Aldrich) for 1 min. Results were photographed using Olympus CKX-41 (Olympus Corporation, Tokyo, Japan). Two kinds of hepatic stellate cells were used; that is, Non-chemical induced hepatic stellate cells (NHSC), and thioacetamide-induced hepatic stellate cells (THSC) for imitating a naturally-occurred activated HSC. […]

[4] = tested on: THSC (thioacetamide-induced hepatic stellate cells); test: Oil red O staining of lipid droplets; settings: curcumin 25 μM, 12 and 24 h, compared to BL extract treated cells
Procedure: as §3

For `COc1cc(/C=C/C(=O)CC(=O)/C=C/c2ccc(O)c(OC)c2)ccc1O` [curcumin], the “expression level of MMP2” value (MMP2 [1]) was “can reduce”, the “expression level of MMP2” value (MMP2 [2]) was “can reduce” and the “Col 1 expression level” value (NHSC) was “failed to reduce”. For the same molecule, the TGF-β1 level (NHSC) was “cannot reduce”, the “TGF-β R1 level” value (NHSC) was “significantly reduced” and the α-SMA expression level (NHSC) was “failed to reduce”. For the same molecule, the “expression level of TIMP2” value (NHSC; 24 h, vs normal control) was “significantly reduced”, the “expression level of TIMP2” value (THSC; 24 h, vs normal control) was “significantly reduced” and the “Col 1 expression level” value (THSC; except 24 h treatment) was “failed to reduce”. The TGF-β1 level (THSC; except 24 h treatment) was “cannot reduce”, the α-SMA expression level (THSC; except 24 h treatment) was “failed to reduce” and the “lipid droplets (Oil red O)” value [3] was “Fewer lipid droplets were increased”. For the same molecule, the “lipid droplets (Oil red O)” value [4] was “Fewer lipid droplets were increased”.
